The molecules below were run against T1, human PAD4 (Homo sapiens, UniProt Q9UM07) (assay: In vitro PAD4 BAEE biochemical assay). Conditions: BAEE substrate 3 mM, 5 nM PAD4, 2 mM calcium chloride; geometric mean of multiple experiments.
T1 construct: human PAD4 (NM_012387), A2-P663, was PCR amplified; His-SUMO (N, cleaved yes); made in house; host or cells: E. coli BL21(DE3)
Method in brief: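 Assay was run at 25 °C using 3 mM BAEE and 5 nM human PAD4 after a 30 min compound preincubation; ammonia produced over 2 h was quantified by OPA-derived fluorescence. Full inhibition was defined by 50 µM BB-Cl-Amidine, and IC50 came from variable-slope nonlinear regression.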

T1 sequence (Q9UM07 2-663): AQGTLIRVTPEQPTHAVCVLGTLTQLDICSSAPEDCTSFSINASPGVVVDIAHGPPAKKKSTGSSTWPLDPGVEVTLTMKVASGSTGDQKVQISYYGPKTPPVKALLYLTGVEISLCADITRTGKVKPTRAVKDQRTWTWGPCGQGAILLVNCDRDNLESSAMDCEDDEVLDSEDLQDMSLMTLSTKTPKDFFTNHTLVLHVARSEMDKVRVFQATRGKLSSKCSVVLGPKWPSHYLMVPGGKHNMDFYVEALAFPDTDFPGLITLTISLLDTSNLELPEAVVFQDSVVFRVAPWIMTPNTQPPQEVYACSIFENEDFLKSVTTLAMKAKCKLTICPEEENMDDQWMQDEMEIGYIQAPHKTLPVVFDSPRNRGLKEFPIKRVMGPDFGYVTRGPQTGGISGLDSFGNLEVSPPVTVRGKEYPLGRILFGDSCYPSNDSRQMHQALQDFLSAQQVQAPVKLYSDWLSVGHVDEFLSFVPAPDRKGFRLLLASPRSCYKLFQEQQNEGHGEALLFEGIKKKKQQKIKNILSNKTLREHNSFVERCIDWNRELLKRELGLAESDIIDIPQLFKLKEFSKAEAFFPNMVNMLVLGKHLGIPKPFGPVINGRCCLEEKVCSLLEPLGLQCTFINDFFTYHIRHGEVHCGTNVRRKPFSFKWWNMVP

Structure (SMILES) | IC50 [nM]
COc1cc(C(=O)N2CC[C@@H](OC(F)F)[C@@H](N)C2)cc2nc(-c3cc4ccc5nc4n3CC(F)(F)CCC[C@@H]3C[C@H]3C(=O)N[C@@H]5C)n(C)c12 [Example 850, (2~{R},5~{R},7~{R})-14-[5-[(3~{S},4~{R})-3-amino-4-(difluoromethoxy)piperidine-1-carbonyl]-7-methoxy-1-methyl-benzimidazol-2-yl]-11,11-difluoro-2-methyl-3,13,19-triazatetracyclo[11.5.2.0^ {5,7}.0^{16,20}]icosa-1(19), 14,16(20),17-tetraen-4-one] | 64
COc1cc(C(=O)N2C[C@H](N)C[C@@H](F)C2)cc2nc(-c3cc4ccc5nc4n3CC(F)(F)CCC[C@@H]3C[C@H]3C(=O)N[C@@H]5C)n(C)c12 [Example 851, (2~{R},5~{R},7~{R})-14-[5-[(3~{R},5~{R})-3-amino-5-fluoro-piperidine-1-carbonyl]-7-methoxy-1-methyl-benzimidazol-2-yl]-11,11-difluoro-2-methyl-3,13,19-triazatetracyclo[11.5.2.0^ {5,7}.0^{16,20}]icosa-1(19), 14,16(20),17-tetraen-4-one] | 20
COc1cc(C(=O)N2CCC[C@@H](N)[C@H]2C)cc2nc(-c3cc4ccc5nc4n3CC(F)(F)CCC[C@@H]3C[C@H]3C(=O)N[C@@H]5C)n(C)c12 [Example 852, (2~{R},5~{R},7~{R})-14-[5-[(2~{R},3~{R})-3-amino-2-methyl-piperidine-1-carbonyl]-7-methoxy-1-methyl-benzimidazol-2-yl]-11,11-difluoro-2-methyl-3,13,19-triazatetracyclo[11.5.2.0^ {5,7).0^{16,20}]icosa-1(19), 14,16(20),17-tetraen-4-one] | 16
COc1cc(C(=O)N2C[C@H]3CC[C@@H]2[C@@H]3N)cc2nc(-c3cc4ccc5nc4n3CC(F)(F)CCC[C@@H]3C[C@H]3C(=O)N[C@@H]5C)n(C)c12 [Example 853, (2~{R},5~{R},7~{R})-14-[5-[(1~{R},4~{R},7~{R})-7-amino-2-azabicyclo[2.2.1]heptane-2-carbonyl]-7-methoxy-1-methyl-benzimidazol-2-yl]-11,11-difluoro-2-methyl-3,13,19-triazatetracyclo[11.5.2.0^ {5,7}.0^{16,20}]icosa-1(19), 14,16(20),17-tetraen-4-one] | 48
COc1cccc2c1C(=O)N[C@H](C)c1ccc3cc(-c4nc5cc(C(=O)N6CC[C@@H](OC)[C@@H](N)C6)cc(OC)c5n4C)n(c3n1)CCCCC2 [Example 854, (2~{R})-17-[5-[(3~{S},4~{R})-3-amino-4-methoxy-piperidine-1-carbonyl]-7-methoxy-1-methyl-benzimidazol-2-yl]-6-methoxy-2-methyl-3,16,22-triazatetracyclo[14.5.2.0^ {5,10}.0^{19,23}]tricosa-1(22),5(10),6,8,17,19(23),20-heptaen-4-one] | 68
COc1cc(C(=O)N2CC[C@@H](OC)[C@@H](N)C2)cc2nc(-c3cc4ccc5nc4n3CCCCCc3nccnc3C(=O)N(C)[C@@H]5C)n(C)c12 [Example 855, (2~{R})-17-[5-[(3~{S},4~{R})-3-amino-4-methoxy-piperidine-1-carbonyl]-7-methoxy-1-methyl-benzimidazol-2-yl]-2,3-dimethyl-3,6,9,16,22-pentazatetracyclo[14.5.2.0^ {5,10}.0^1923]tricosa-1(22),, 5(10),6,8,17,19(23),20-heptaen-4-one] | 65
COc1cc(C(=O)N2CC[C@@H](OC)[C@@H](N)C2)cc2nc(-c3cc4ccc5nc4n3CCCC(F)(F)C[C@H]3C[C@@H]3C(=O)N[C@@H]5C)n(C)c12 [Example 856, (2~{R},5~{S},7~{R})-14-[5-[(3~{S),4~{R})-3-amino-4-methoxy-piperidine-1-carbonyl]-7-methoxy-1-methyl-benzimidazol-2-yl]-9,9-difluoro-2-methyl-3,13,19-triazatetracyclo [11.5.2.0^{5,7}.0^{16,20}] icosa-1(19),14,16(20), 17-tetraen-4-one] | 156
COc1cc(C(=O)N2CC[C@@H](OC)[C@@H](N)C2)cc2nc(-c3cc4ccc5nc4n3CCCC(F)(F)C[C@@H]3C[C@H]3C(=O)N[C@@H]5C)n(C)c12 [Example 857] | 13
COc1cc(C(=O)N2CC[C@@H](OC)[C@@H](N)C2)cc2nc(-c3cc4ccc5nc4n3CCCC(F)(F)C[C@@H]3C[C@@H]3C(=O)N[C@@H]5C)n(C)c12 [Example 858, (2~{R},5~{S},7~{S})-14-[5-[(3~{S},4~{R})-3-amino-4-methoxy-piperidine-1-carbonyl]-7-methoxy-1-methyl-benzimidazol-2-yl]-9,9-difluoro-2-methyl-3,13,19-triazatetracyclo [11.5.2.0^{5,7}.0^{16,20}] icosa-1(19),14,16(20), 17-tetraen-4-one] | 459
COc1cc(C(=O)N2CC[C@@H](OC)[C@@H](N)C2)cc2nc(-c3cc4ccc5nc4n3CCCC(F)(F)C[C@H]3C[C@H]3C(=O)N[C@@H]5C)n(C)c12 [Example 859, (2~{R},5~{R},7~{R})-14-[5-[(3~{S},4~{R})-3-amino-4-methoxy-piperidine-1-carbonyl]-7-methoxy-1-methyl-benzimidazol-2-yl]-9,9-difluoro-2-methyl-3,13,19-triazatetracyclo [11.5.2.0^{5,7}.0^{16,20}] icosa-1(19),14,16(20),17-tetraen-4-one] | 38
COc1cc(C(=O)N2CC[C@@H](OC)[C@@H](N)C2)cc2nc(-c3cc4ccc5nc4n3CCCCCCC(c3ccccn3)C(=O)N[C@@H]5C)n(C)c12 (stereo partly drawn) [Example 860, (11~{R})-17-[5-[(3~{S),4~{R})-3-amino-4-methoxy-piperidine-1-carbonyl]-7-methoxy-1-methyl-benzimidazol-2-yl]-11-methyl-8-(2-pyridyl)-1,10,19-triazatricyclo [10.5.2.0^{15,18}]nonadeca-12(19),13,15(18),16-tetraen-9-one] | 44
COc1cc(C(=O)N2CC[C@@H](OC)[C@@H](N)C2)cc2nc(-c3cc4ccc5nc4n3CCCCCC[C@](C)(c3ccccn3)C(=O)N[C@@H]5C)n(C)c12 [Example 861, (8~{R},11~{R})-17-[5-[(3~ {S},4~{R})-3-amino-4-methoxy-piperidine-1-carbonyl]-7-methoxy-1-methyl-benzimidazol-2-yl]-8,11-dimethyl-8-(2-pyridyl)-1,10,19-triazatricyclo[10.5.2.0^{15,18}] nonadeca-12(19),13,15(18), 16-tetraen-9-one] | 39
COc1cc(C(=O)N2CC[C@@H](OC)[C@@H](N)C2)cc2nc(-c3cc4ccc5nc4n3CCCCCC[C@@](C)(c3ccccn3)C(=O)N[C@@H]5C)n(C)c12 [Example 862, (8~{S},11~{R})-17-[5-[(3~{S}, 4~{R})-3-amino-4-methoxy-piperidine-1-carbonyl]-7-methoxy-1-methyl-benzimidazol-2-yl]-8,11-dimethyl-8-(2-pyridyl)-1,10,19-triazatricyclo[10.5.2.0^{15,18}] nonadeca-12(19), 13,15(18),16-tetraen-9-one] | 78
COc1nccc2c1C(=O)N[C@H](C)c1ccc3cc(-c4nc5cc(C(=O)N6CC[C@@H](OC)[C@@H](N)C6)cc(OC)c5n4C)n(c3n1)CCCCC2 [Example 863, (2~{R})-17-[5-[(3~{S},4~{R})-3-amino-4-methoxy-piperidine-1-carbonyl]-7-methoxy-1-methyl-benzimidazol-2-yl]-6-methoxy-2-methyl-3,7,16,22-tetrazatetracyclo[14.5.2.0^ {5,10}.0^{19,23}]tricosa-1(22), 5(10),6,8,17,19(23),20-heptaen-4-one] | 69
COC[C@]12C[C@H]1CCCCCn1c(-c3nc4cc(C(=O)N5CC[C@@H](OC)[C@@H](N)C5)cc(OC)c4n3C)cc3ccc(nc31)[C@@H](C)NC2=O [Example 864, (2~{R},5~{S),7~{R})-14-[5-[(3~{S},4~{R})-3-amino-4-methoxy-piperidine-1-carbonyl]-7-methoxy-1-methyl-benzimidazol-2-yl]-5-(methoxymethyl)-2-methyl-3,13,19-triazatetracyclo [11.5.2.0^{5,7}.0^{16,20}] icosa-1(19),14,16(20), 17-tetraen-4-one] | 68
COC[C@@]12C[C@@H]1CCCCCn1c(-c3nc4cc(C(=O)N5CC[C@@H](OC)[C@@H](N)C5)cc(OC)c4n3C)cc3ccc(nc31)[C@@H](C)NC2=O [Example 865, (2~{R},5~{R},7~{S})-14-[5-[(3~{S},4~{R})-3-amino-4-methoxy-piperidine-1-carbonyl]-7-methoxy-1-methyl-benzimidazol-2-yl]-5-(methoxymethyl)-2-methyl-3,13,19-triazatetracyclo[11.5.2.0^ {5,7}.0^{16,20}]icosa-1(19), 14,16(20),17-tetraen-4-one] | 230
COc1cc(C(=O)N2CC[C@@H](OC)[C@@H](N)C2)cc2nc(-c3cc4ccc5nc4n3CCCc3cccc(c3)CC(=O)N[C@@H]5C)n(C)c12 [Example 866, (13˜{R})-19-[5-[(3˜{S},4˜{R})-3-amino-4-methoxy-piperidine-1-carbonyl]-7-methoxy-1-methyl-benzimidazol-2-yl]-13-methyl-1,12,21-triazatetracyclo[12.5.2.1^{5,9}.0^{17,20}]docosa-5,7,9(22),14(21),15,17(20),18-heptaen-11-one] | 79
COc1cc(C(=O)N2CC[C@@H](OC)[C@@H](N)C2)cc2nc(-c3cc4ccc5nc4n3CC(F)(F)CCC[C@@H]3C[C@H]3C(=O)N(CC(F)F)[C@@H]5C)n(C)c12 [Example 867, (2~{R},5~{R},7~{R})-14-[5-[(3~{S},4~{R})-3-amino-4-methoxy-piperidine-1-carbonyl]-7-methoxy-1-methyl-benzimidazol-2-yl]-3-(2,2-difluoroethyl)-11,11-difluoro-2-methyl-3,13,19-triazatetracyclo[11.5.2.0^ {5,7).0^{16,20}]icosa-1(19),14,16(20),17-tetraen-4-one] | 44

Reference: patent US11976083B2, “Inhibitors of peptidylarginine deiminases” (Gilead Sciences, Inc., priority 2020, dated 2024)
